One test deals with KRas G12C mutant (Homo sapiens (Human), UniProt P01116, G12C). The experiment in a line: Ras GTP Binding Domain Inhibition Assay, KRas G12C mutant. The protocol: (§1) A Ras Superfamily Activity Assay (as disclosed in International Application No. PCT/US2018/038613, filed Jun. 20, 2018, which is incorporated by reference in its entirety) was used as a specific assay to evaluate compounds against the following for the following Ras Superfamily proteins: KRas wild type, KRas Q61H mutant, KRas G12C mutant, KRas G12D mutant, Rac-1, and Rho-A.
Chain of KRas G12C mutant (P01116 other isoform, or with tags, fused parts or gaps G12C): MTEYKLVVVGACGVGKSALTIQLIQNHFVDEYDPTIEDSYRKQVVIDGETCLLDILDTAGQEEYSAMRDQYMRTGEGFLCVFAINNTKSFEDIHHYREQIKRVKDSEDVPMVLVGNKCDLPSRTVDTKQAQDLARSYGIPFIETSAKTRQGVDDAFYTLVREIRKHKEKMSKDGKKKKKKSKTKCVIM
(§2) Buffer-I: • 25 mM Tris-HCl, pH 7.4 • 27 mM KCl • 137 mM NaCl • 1 mM MgCl2 • 1 mM DTT
(§3) Buffer-II: • 50 mM Tris-HCl, pH 7.0 • 1 mM MgCl2 • 1 mM DTT
(§4) The small GTPases proteins: KRas wild type. KRas Q61H mutant, KRas G12C mutant, KRas G12D mutants, Rac-1, and Rho-A were expressed as His-tagged proteins. In addition, the Guanosine nucleotide Exchange Factor (GEF) Sos protein (residues 556-1049) was expressed as a His-tagged protein. In cells, the guanine nucleotide exchange factor Sos protein promotes activation of Ras proteins by stimulating an exchange of GDP for GTP. The inclusion of Sos to the Ras GTP binding domain inhibition assay may be considered as an alternative representation of physiological cellular conditions for evaluating the inhibitory activity of some of the tested small molecules.
(§5) For the assay, all purified small GTPases proteins were diluted in Buffer-I or Buffer-II to a final concentration of 10-30 μg/mL. 200 μL of each diluted protein was added to a nickel-coated 96-well plate and incubated overnight at 4° C. Then the protein solution was discarded and 200 μL of Buffer-I or Buffer-II was added to each well in the presence of 1% DMSO. Compounds to be tested were added to the protein-coated wells at final concentration of 20 μM, and incubated for 3 hours at room temperature with and without 10-30 μg/mL of Sos added to the final hour of the incubation. When performing IC50 measurements a serial dilution of all tested concentrations was added. Then Cy3-GTP or Cy5-GTP was added to each well to a final concentration of 100 nM. The labeled GTP was incubated for 45 minutes at room temperature. Following GTP incubation, wells were washed 3× in Buffer-I or Buffer-II and 200 μL of Buffer-I or Buffer-II was added to each well. Following washes, the amount of bound labeled-GTP was measured using a SpectraMax M3 (Molecular Devices).

In a further test the test system is MAPK p38. The experiment in a line: MAPK p38 Activation Assay in Panc-1 (western blot). In kind it is cell-based, Human. Also on record: key: Y = yes; N = No. The following applies: at 10 μM. The protocol: (§6) Cell lines: Human tumor-derived pancreatic cancer cell line Panc-1 and mouse muscle myoblast C2C12 were purchased from American Type Culture Collection and grown in complete DMEM-High Glucose, supplemented with penicillin (100 U/mL), streptomycin (100 μg/mL), and 10% heat-inactivated FBS at 37° C. in a humidified incubator with 5% CO2.
(§7) Method: Cells were plated at 350000 cells/well density in a 12-well plate, allowed 3 hours to adhere to the plate, then starved in the appropriate medium in the presence of 0.5% FBS overnight. The small molecules to be tested were added to the cells in the final concentration of 10 μM in the presence of 0.3% DMSO for 3 hours incubation at 37° C. For IC50 value determination, serial dilutions of compounds were added to cells under the same conditions. Next, Panc-1 cells were stimulated with 10 ng/ml TGF-b1 for 1 hour, and C2C12 cells were stimulated with 10 ng/ml TGF-b1 for 20 minutes (recombinant human TGF-b1, R&D Systems). After stimulation cells were lysed with lysis buffer containing 1% Triton X-100, EDTA, and Halt™ Protease & Phosphatase Inhibitor Cocktail (Thermo Scientific). Protein concentration was assessed by BCA protein assay (Thermo Scientific). Phosphorylation level of MAPK p38 was determined by western blot.
(§8) Western blot protocol: Equal amounts of protein (15-50 μg) were separated by SDS-PAGE and transferred to nitrocellulose membranes (Invitrogen by Thermo Fisher Scientific). The membrane was stained with Ponceau S Stain (Boston BioProducts) to verify uniform protein loading. Membranes were blocked with 10% milk and phosphorylation levels of Smad2/Smad3 were assessed by incubating overnight at 4° C. with the following antibody: Phospho-p38 MAPK (Thr180/Tyr182), from Cell Signaling Technology. Then the membranes were incubated with HRP-conjugated secondary antibody (Jackson Immunoresearch, West Grove, PA). Bands were incubated in Amersham ECL Prime Western Blotting Detection Reagent (GE Healthcare) and visualized using the ChemiDoc MP imaging system (Bio-Rad).
(Immunoblotting shows a protein as a band on a membrane.)

The next test concerns the target Rac-1 (Homo sapiens (Human), UniProt P63000). The experiment in a line: Ras GTP Binding Domain Inhibition Assay, Rac-1. The protocol:
as §1, §2, §3, §4, §5

The target in a further test is KRas wild type (Homo sapiens (Human), UniProt P01116). Kind of test: Ras GTP Binding Domain Inhibition Assay, KRas wild type. The protocol:
as §1, §2, §3, §4, §5

The test system of a further test is JNK. Kind of test: JNK Activation Assay in Panc-1 (western blot). In kind it is cell-based, Human. Also on record: key: Y = yes; N = No. The following applies: at 10 μM. The protocol: as §6
as §7, with “JNK” for “MAPK p38”
as §8, with “Smad2, Smad3, INK and p38” for “Smad2/Smad3”, “Phospho-SAPK/JNK (Thr183/Tyr185),” for “Phospho-p38 MAPK (Thr180/Tyr182),”

Setting [1] is: without SOS, read-out: KRas G12C mutant: % inh.
[2] abbreviates: without SOS, read-out: Rac-1: % inh.
Setting [3] is: without SOS, read-out: KRas wild type: % inh.
Setting [4] is: + SOS, read-out: KRas G12C mutant + SOS: % inh.
Setting [5] is: + SOS, read-out: KRas wild type + SOS: % inh.

Where two headings read alike, the source gives them in different places.

Chain of KRas wild type (P01116 other isoform, or with tags, fused parts or gaps): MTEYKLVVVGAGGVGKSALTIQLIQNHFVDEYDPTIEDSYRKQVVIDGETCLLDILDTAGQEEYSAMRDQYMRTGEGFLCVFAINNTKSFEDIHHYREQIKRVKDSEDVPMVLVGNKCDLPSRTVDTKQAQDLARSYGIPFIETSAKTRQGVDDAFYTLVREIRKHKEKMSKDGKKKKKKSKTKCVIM

In the case of `COCCNc1nc(-c2nccn2C)nc2sc(-c3ccccc3)c(-c3ccccc3Cl)c12` [Compound 4, 5-(2-Chlorophenyl)-N-(2-methoxyethyl)-2-(1-methyl-1H-imidazol-2-yl)-6-phenylthieno[2,3-d]pyrimidin-4-amine], the results for the inhibition at 20 µM at KRas G12C mutant (setting [1]), on Rac-1 (setting [2]) and at KRas wild type (setting [3]) were 26 to 45%, 26 to 45% and 1 to 25%, respectively. Moreover, in the test on MAPK p38, the “Activation of MAPK p38 in PANC-1” value is listed as “Y”. Further, the “Activation of JNK in PANC-1” value in the test on JNK is reported as “Y”.
`COCCN(C)c1nc(-c2nccn2C)nc2sc(-c3ccccc3)c(-c3ccccc3)c12` [Compound 2, N-(2-Methoxyethyl)-N-methyl-2-(1-methyl-1H-imidazol-2-yl)-5,6-diphenylthieno[2,3-d]pyrimidin-4-amine]: the inhibition at 20 µM at KRas G12C mutant (setting [1]) lay in the range of 26 to 45%; at Rac-1 (setting [2]), 26 to 45%; at KRas wild type (setting [3]), 46 to 75%. Further, the “Activation of MAPK p38 in PANC-1” value in the test on MAPK p38 was “Y”. Further, the “Activation of JNK in PANC-1” value in the test on JNK is recorded as “Y”.
Turning to `COc1cccc(-c2sc3nc(-c4nccn4C)nc(N[C@@H]4CC[C@@H](OC)C4)c3c2C)c1F` (racemic) [Compound 43, rac-6-(2-Fluoro-3-methoxyphenyl)-N-((1R,3R)-3-methoxycyclopentyl)-5-methyl-2-(1-methyl-1H-imidazol-2-yl)thieno[2,3-d]pyrimidin-4-amine], the inhibition at 20 µM on KRas G12C mutant (setting [4]) lay in the range of 76 to 100%; on KRas G12C mutant (setting [1]) it was 26 to 45%; on Rac-1 (setting [2]), 1 to 25%; on KRas wild type (setting [5]), 76 to 100%; on KRas wild type (setting [3]) it was 26 to 45%. The “Activation of MAPK p38 in PANC-1” value in the test with MAPK p38 was “Y”. Besides, the “Activation of JNK in PANC-1” value in the test on JNK was “Y”.
For `Cc1c(-c2ccn(C(C)C)n2)sc2nc(-c3nccn3C)nc(NCC3CCCO3)c12` (racemic) [Compound 26, rac-6-(1-Isopropyl-1H-pyrazol-3-yl)-5-methyl-2-(1-methyl-1H-imidazol-2-yl)-N-((tetrahydrofuran-2-yl)methyl)thieno[2,3-d]pyrimidin-4-amine], the inhibition at 20 µM at KRas G12C mutant (setting [4]) is 76 to 100%; at KRas G12C mutant (setting [1]), 76 to 100%; on Rac-1 (setting [2]), 46 to 75%; on KRas wild type (setting [5]), 76 to 100%; on KRas wild type (setting [3]), 76 to 100%. For the same molecule, the “Activation of MAPK p38 in PANC-1” value in the test on MAPK p38 is given as “Y”. In addition, the “Activation of JNK in PANC-1” value in the test with JNK was “Y”.
For the molecule `COCCCOc1nc(-c2nccn2C)nc2sc(-c3ccn(C(C)C)n3)c(C)c12` [Compound 32, 6-(1-Isopropyl-1H-pyrazol-3-yl)-4-(3-methoxypropoxy)-5-methyl-2-(1-methyl-1H-imidazol-2-yl)thieno[2,3-d]pyrimidine], the inhibition at 20 µM at KRas G12C mutant (setting [4]) was 46 to 75%; on KRas G12C mutant (setting [1]), 46 to 75%; on Rac-1 (setting [2]), 0%; on KRas wild type (setting [5]) it was 76 to 100%; on KRas wild type (setting [3]), 76 to 100%. The “Activation of MAPK p38 in PANC-1” value in the test on MAPK p38 is listed as “N”. The “Activation of JNK in PANC-1” value in the test on JNK is reported as “Y”.
As to `COCCNc1nc(-c2nccn2C)nc2sc(-c3cccc(OC)c3Cl)c(-c3ccccc3)c12` [Compound 9, 6-(2-Chloro-3-methoxyphenyl)-N-(2-methoxyethyl)-2-(1-methyl-1H-imidazol-2-yl)-5-phenylthieno[2,3-d]pyrimidin-4-amine], the inhibition at 20 µM lay within 76 to 100% on KRas G12C mutant (setting [4]); 26 to 45% on KRas G12C mutant (setting [1]); 46 to 75% at Rac-1 (+ SOS, read-out: Rac-1 + SOS: % inh.); 46 to 75% on Rac-1 (setting [2]); 76 to 100% on KRas wild type (setting [5]); 46 to 75% at KRas wild type (setting [3]). Further, in the test with MAPK p38, the “Activation of MAPK p38 in PANC-1” value is reported as “Y”. The “Activation of JNK in PANC-1” value in the test on JNK is “Y”.
Regarding `COCCCn1c(-c2nccn2C)nc2sc(-c3ccn(C(C)C)n3)c(C)c2c1=O` [Compound 31, 6-(1-Isopropyl-1H-pyrazol-3-yl)-3-(3-methoxypropyl)-5-methyl-2-(1-methyl-1H-imidazol-2-yl)thieno[2,3-d]pyrimidin-4(3H)-one], the inhibition at 20 µM is 0% at KRas G12C mutant (setting [4]); 0% on KRas G12C mutant (setting [1]); 0% on Rac-1 (setting [2]); 1 to 25% on KRas wild type (setting [5]); 1 to 25% on KRas wild type (setting [3]). For the same molecule, the “Activation of MAPK p38 in PANC-1” value with MAPK p38 is “N”. For the same molecule, the “Activation of JNK in PANC-1” value in the test with JNK was “N”.
Turning to `COCCOc1nc(-c2nccn2C)nc2sc(-c3ccn(C(C)C)n3)c(C)c12` [Compound 30, 6-(1-Isopropyl-1H-pyrazol-3-yl)-4-(2-methoxyethoxy)-5-methyl-2-(1-methyl-1H-imidazol-2-yl)thieno[2,3-d]pyrimidine], the inhibition at 20 µM was 0% at KRas G12C mutant (setting [4]); 1 to 25% on KRas G12C mutant (setting [1]); 0% on Rac-1 (setting [2]); 0% on KRas wild type (setting [5]); 1 to 25% at KRas wild type (setting [3]). The “Activation of MAPK p38 in PANC-1” value in the test with MAPK p38 was “N”. Moreover, the “Activation of JNK in PANC-1” value in the test on JNK is “N”.
Take `COc1cc(Cn2c(-c3nccn3C)nc3sc(-c4ccn(C(C)C)n4)c(C)c3c2=O)ncn1` [Compound 35, 6-(1-Isopropyl-1H-pyrazol-3-yl)-3-((6-methoxypyrimidin-4-yl)methyl)-5-methyl-2-(1-methyl-1H-imidazol-2-yl)thieno[2,3-d]pyrimidin-4(3H)-one]: the inhibition at 20 µM was 1 to 25% at KRas G12C mutant (setting [4]); 0% at KRas G12C mutant (setting [1]); 0% at Rac-1 (setting [2]); 1 to 25% on KRas wild type (setting [5]); 1 to 25% on KRas wild type (setting [3]). The “Activation of MAPK p38 in PANC-1” value in the test on MAPK p38 is listed as “N”. In addition, the “Activation of JNK in PANC-1” value in the test on JNK is “N”.

Values taken from patent US20240124483A1, “Methods for the Treatment of Fibrotic Disease” (SHY Therapeutics, LLC, priority 2021, published 2024).
